Sander's compilation of Henry's law constants (doi:10.1021/je700612b)

assay: Henry solubility constant Hcp at 298.15 K (mol/(m3 Pa)); details: reference: Ji et al. (2008)

First: CC(=O)c1ccccc1 [1-phenylethanone]
Second: CCC(=O)c1ccccc1 [phenyl ethyl ketone]
The “Henry solubility constant Hcp” value of the first is higher: 1.2 for the first, 0.99 for the second.

Compared with `COc1ccccc1C=O` [2-methoxybenzaldehyde], `Cc1ccccc1C=O` [2-methylbenzaldehyde] is lower in “Henry solubility constant Hcp” value: 10 for the first, 0.31 for the second.

Going from `CC(=O)c1ccccc1O` [2′-hydroxyacetophenone] to `CC(=O)c1ccccc1C` [2′-methylacetophenone], the “Henry solubility constant Hcp” value falls from 1 to 0.76.

Compared with `COc1ccccc1C(C)=O` [2′-methoxyacetophenone], `COc1cccc(C(C)=O)c1` [3′-methoxyacetophenone] is higher in “Henry solubility constant Hcp” value: 17 for the first, 19 for the second.

Compared with `COc1cccc(C=O)c1` [3-methoxybenzaldehyde], `Cc1cccc(C=O)c1` [3-methylbenzaldehyde] is lower in “Henry solubility constant Hcp” value: 5.1 for the first, 0.35 for the second.

Going from `CC(=O)c1cccc(C)c1` [3′-methylacetophenone] to `CC(=O)c1ccc(C)cc1` [4'-methylacetophenone], the “Henry solubility constant Hcp” value rises from 1.5 to 1.8.

In the case of `COc1ccc(C=O)cc1` [4-methoxybenzaldehyde], the “Henry solubility constant Hcp” value is reported as 24.
